{
  "source": "patent US10720228B2",
  "about": "“Method and system for testing of active molecules using molecular simulation of skin membrane” (Tata Consultancy Services Limited, priority 2016, dated 2020)",
  "origin": "cited, not measured here",
  "conditions": "323 K",
  "data": [
    {"smiles": "O", "note": "[water]", "values": [
      {"measurement": "experimentally observed free energy of water solvation in hexadecane", "value": 5.98, "unit": "kcal/mol"}
    ]}
  ]
}
